Measurements published in ChEMBL document CHEMBL5696439 (Cancer Res, 2010).
Activity calls are given as the source filed them. No cut-off for these calls is given here.

How the values were obtained:
[1] = tested on: A549; assay: Antitumor activity against human A549 cells xenografted in female nude mouse model assessed as suppression in tumor growth at 50 mg/kg, po qd administered as 5 days on/2 days off regimen for 4 cycles relative to control; type: functional; details: time 28 day
[2] = target: Serine/threonine-protein kinase D1 (Homo sapiens) (UniProt Q15139); assay: Inhibition of recombinant human full length GST-tagged PRKD1 expressed in insect cells at 2 uM using Ser/Thr 17 as substrate measured after 1 hr by Z'-LYTE assay relative to control; details: Insect cell
[3] = tested on: 786-0; assay: Antitumor activity against PTEN null-human 786-0 cells xenografted in female nude mouse model assessed as suppression in tumor growth at 25 mg/kg, po qd administered as 5 days on/2 days off regimen for 4 cycles relative to control; type: functional; details: time 28 day
[4] = target: Serine/threonine-protein kinase MARK2 (Homo sapiens) (UniProt Q7KZI7); assay: Inhibition of recombinant human full length GST-tagged MARK2 expressed in insect cells at 2 uM using Ser/Thr 21 as substrate measured after 1 hr by Z'-LYTE assay relative to control; details: Insect cell
[5] = target: Hepatocyte growth factor receptor (Homo sapiens) (UniProt P08581); assay: Inhibition of recombinant human His-tagged MET (956-1390 residues) expressed in baculovirus expression system at 2 uM using Tyr 06 as substrate measured after 1 hr by Z'-LYTE assay relative to control
[6] = target: Interleukin-1 receptor-associated kinase 4 (Homo sapiens) (UniProt Q9NWZ3); assay: Inhibition of recombinant human full-length His-tagged IRAK4 expressed in insect cells at 2 uM using Ser/Thr 07 as substrate measured after 1 hr by Z'-LYTE assay relative to control; details: Insect cell
[7] = tested on: MDA-MB-361; assay: Antitumor activity against human MDA-MB-361 cells xenografted in female nude mouse model assessed as tumor growth delay at 5 mg/kg, po qd administered as 5 days on/2 days off regimen for 4 cycles; type: functional, organism-based; details: time 28.0 day
[8] = target: Ribosomal protein S6 kinase alpha-4 (Homo sapiens) (UniProt O75676); assay: Inhibition of recombinant human full length GST-tagged RPS6KA4 expressed in insect cells at 2 uM using Ser/Thr 01 as substrate measured after 1 hr by Z'-LYTE assay relative to control; details: Insect cell
[9] = target: Death-associated protein kinase 3 (Homo sapiens) (UniProt O43293); assay: Inhibition of recombinant human full-length GST-tagged DAPK3 expressed in insect cells at 2 uM using Ser/Thr 13 as substrate measured after 1 hr by Z'-LYTE assay relative to control; details: Insect cell
[10] = target: Proto-oncogene tyrosine-protein kinase receptor Ret (Homo sapiens) (UniProt P07949); assay: Inhibition of recombinant human GST-tagged RET (658-1114 residues) expressed in insect cells at 2 uM using Tyr 02 as substrate measured after 1 hr by Z'-LYTE assay relative to control; details: Insect cell
[11] = target: Serine/threonine-protein kinase Sgk3 (Homo sapiens) (UniProt Q96BR1); assay: Inhibition of recombinant human GST-tagged SGK3 (87-496 residues) expressed in insect cells at 2 uM using Ser/Thr 06 as substrate measured after 1 hr by Z'-LYTE assay relative to control; details: Insect cell
[12] = target: Beta-adrenergic receptor kinase 1 (Homo sapiens) (UniProt P25098); assay: Inhibition of recombinant human full-length His-tagged ADRBK1 expressed in insect cells at 2 uM using Ser/Thr 16 as substrate measured after 1 hr by Z'-LYTE assay relative to control; details: Insect cell
[13] = target: G protein-coupled receptor kinase 4 (Homo sapiens) (UniProt P32298); assay: Inhibition of recombinant human full-length GST-tagged GRK4 expressed in insect cells at 2 uM using Ser/Thr 16 as substrate measured after 1 hr by Z'-LYTE assay relative to control; details: Insect cell
[14] = tested on: BT-474; assay: Induction of apoptosis in human BT-474 cells assessed as increase in PARP cleavage at 0.3 to 3 micromol/L incubated for 48 hrs by Western blot analysis; type: functional, cell-based; details: dose 0.3-3 µmol/L
[15] = target: Cyclin-dependent kinase 5/CDK5 activator 1 (Homo sapiens) (UniProt Q00535+Q15078); assay: Inhibition of recombinant human full-length GST/His-tagged CDK5/p25 expressed in insect cells at 2 uM using Ser/Thr 12 as substrate measured after 1 hr by Z'-LYTE assay relative to control; details: Insect cell
[16] = tested on: NCI-H1975; assay: Antitumor activity against human NCI-H1975 cells xenografted in female nude mouse model assessed as survival at 10 mg/kg, po qd administered as 5 days on/2 days off regimen for 4 cycles; type: functional, organism-based; details: time 28.0 day
[17] = target: Tyrosine-protein kinase ITK/TSK (Homo sapiens) (UniProt Q08881); assay: Inhibition of recombinant human full-length GST-tagged ITK expressed in insect cells at 2 uM using Tyr 01 as substrate measured after 1 hr by Z'-LYTE assay relative to control; details: Insect cell
[18] = tested on: Proto-oncogene tyrosine-protein kinase receptor Ret (Homo sapiens), P07949 [V804L]; assay: Inhibition of recombinant human GST-tagged RET V804L mutant (658-1114 residues) expressed in baculovirus expression system at 2 uM using Tyr 02 as substrate measured after 1 hr by Z'-LYTE assay relative to control
[19] = tested on: MDA-MB-468; assay: Antiproliferative activity against human MDA-MB-468 cells assessed as cell growth inhibition incubated for 24 hrs by MTS assay; type: functional, cell-based; details: MDA-MB-468, 24 h
[20] = tested on: PC3MM2; assay: Induction of apoptosis in human PC3MM2 cells assessed as increase in G1 phase at 1 micromol/L incubated for 24 hrs by FACS analysis; type: functional, cell-based; details: dose 1.0 µmol/L
[21] = tested on: MDA-MB-361; assay: Induction of apoptosis in PI3K/mTOR hyperactive human MDA-MB-361 cells assessed as massive cell death at 0.001 to 100 micromol/L incubated for 48 hrs by FACS analysis; type: functional, cell-based; details: dose 0.001-100 µmol/L
[22] = target: Protein kinase C beta type (Homo sapiens) (UniProt P05771); assay: Inhibition of recombinant human full length GST-tagged PRKCB1 expressed in baculovirus expression system at 2 uM using Ser/Thr 07 as substrate measured after 1 hr by Z'-LYTE assay relative to control
[23] = target: Vascular endothelial growth factor receptor 1 (Homo sapiens) (UniProt P17948); assay: Inhibition of recombinant human GST-tagged FLT1 (781-1338 residues) expressed in insect cells at 2 uM using Tyr 04 as substrate measured after 1 hr by Z'-LYTE assay relative to control; details: Insect cell
[24] = target: mTORC2 (Homo sapiens) (UniProt P42345+Q6R327+Q9BVC4+Q9BPZ7); details: U-87 MG, dose 0.025-2 µmol/L, time 6.0 hrs
[25] = tested on: HCT-116; assay: Induction of apoptosis in human HCT-116 cells assessed as increase in G1 phase at 1 micromol/L incubated for 24 hrs by FACS analysis; type: functional, cell-based; details: dose 1.0 µmol/L
[26] = target: Tyrosine-protein kinase FRK (Homo sapiens) (UniProt P42685); assay: Inhibition of recombinant human full-length GST-tagged FRK expressed in baculovirus expression system at 2 uM using Tyr 01 as substrate measured after 1 hr by Z'-LYTE assay relative to control

Serine/threonine-protein kinase D1 (Homo sapiens), sequence (Q15139 whole entry): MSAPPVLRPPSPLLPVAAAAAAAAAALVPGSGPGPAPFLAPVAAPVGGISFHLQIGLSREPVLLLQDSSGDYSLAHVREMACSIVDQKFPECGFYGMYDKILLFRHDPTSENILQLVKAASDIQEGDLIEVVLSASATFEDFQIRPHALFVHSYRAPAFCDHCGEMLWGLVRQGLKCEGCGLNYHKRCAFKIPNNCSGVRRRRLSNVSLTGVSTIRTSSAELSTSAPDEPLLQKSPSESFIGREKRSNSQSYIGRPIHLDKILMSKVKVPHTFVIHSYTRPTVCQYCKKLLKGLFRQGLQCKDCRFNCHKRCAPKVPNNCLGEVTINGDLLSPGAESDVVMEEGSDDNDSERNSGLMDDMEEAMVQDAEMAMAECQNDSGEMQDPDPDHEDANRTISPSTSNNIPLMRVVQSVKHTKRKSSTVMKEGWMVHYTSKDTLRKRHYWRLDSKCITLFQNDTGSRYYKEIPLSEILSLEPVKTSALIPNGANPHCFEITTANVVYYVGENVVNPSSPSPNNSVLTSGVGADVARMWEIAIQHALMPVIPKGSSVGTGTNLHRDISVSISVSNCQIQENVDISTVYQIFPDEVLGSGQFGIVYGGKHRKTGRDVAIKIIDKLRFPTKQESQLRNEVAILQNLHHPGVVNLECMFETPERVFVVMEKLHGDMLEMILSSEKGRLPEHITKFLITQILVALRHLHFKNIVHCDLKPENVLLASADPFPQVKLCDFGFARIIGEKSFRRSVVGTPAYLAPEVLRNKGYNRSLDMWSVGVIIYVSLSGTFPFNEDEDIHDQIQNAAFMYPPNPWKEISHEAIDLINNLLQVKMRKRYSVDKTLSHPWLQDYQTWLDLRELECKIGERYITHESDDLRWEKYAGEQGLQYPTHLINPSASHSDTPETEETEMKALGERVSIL
Serine/threonine-protein kinase Sgk3 (Homo sapiens), sequence (Q96BR1 whole entry, the tested form may be a part): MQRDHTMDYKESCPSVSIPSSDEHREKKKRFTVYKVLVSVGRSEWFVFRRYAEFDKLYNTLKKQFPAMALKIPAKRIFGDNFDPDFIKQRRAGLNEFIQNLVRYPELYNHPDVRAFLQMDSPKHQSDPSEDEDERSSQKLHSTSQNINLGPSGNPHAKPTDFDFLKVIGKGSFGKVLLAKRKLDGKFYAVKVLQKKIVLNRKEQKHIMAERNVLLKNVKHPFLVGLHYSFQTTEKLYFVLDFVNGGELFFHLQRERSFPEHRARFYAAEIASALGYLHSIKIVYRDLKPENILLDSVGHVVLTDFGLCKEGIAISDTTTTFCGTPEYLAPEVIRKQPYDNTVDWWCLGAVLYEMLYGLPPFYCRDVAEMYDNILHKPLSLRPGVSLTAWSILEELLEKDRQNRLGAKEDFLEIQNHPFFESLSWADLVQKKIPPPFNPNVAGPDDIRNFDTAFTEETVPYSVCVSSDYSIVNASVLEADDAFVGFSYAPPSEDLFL
Beta-adrenergic receptor kinase 1 (Homo sapiens), sequence (P25098 whole entry): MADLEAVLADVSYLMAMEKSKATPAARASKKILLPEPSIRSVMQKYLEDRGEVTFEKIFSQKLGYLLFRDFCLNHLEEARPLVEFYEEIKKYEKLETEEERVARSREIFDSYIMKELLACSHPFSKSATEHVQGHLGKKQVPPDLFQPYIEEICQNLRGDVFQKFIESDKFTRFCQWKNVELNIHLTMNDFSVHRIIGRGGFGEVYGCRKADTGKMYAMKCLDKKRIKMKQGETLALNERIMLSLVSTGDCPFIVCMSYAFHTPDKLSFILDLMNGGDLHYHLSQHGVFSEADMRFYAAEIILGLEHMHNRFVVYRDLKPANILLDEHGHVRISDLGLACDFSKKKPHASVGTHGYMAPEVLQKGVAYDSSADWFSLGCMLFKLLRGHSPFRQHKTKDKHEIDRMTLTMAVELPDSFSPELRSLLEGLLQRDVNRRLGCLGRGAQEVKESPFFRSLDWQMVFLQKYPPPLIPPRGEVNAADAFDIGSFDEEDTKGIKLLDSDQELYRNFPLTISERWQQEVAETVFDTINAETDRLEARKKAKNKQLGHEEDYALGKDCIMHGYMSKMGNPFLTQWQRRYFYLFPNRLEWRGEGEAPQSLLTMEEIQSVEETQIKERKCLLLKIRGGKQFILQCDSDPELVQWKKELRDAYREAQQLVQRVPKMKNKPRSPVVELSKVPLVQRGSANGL
Vascular endothelial growth factor receptor 1 (Homo sapiens), sequence (P17948 whole entry, the tested form may be a part): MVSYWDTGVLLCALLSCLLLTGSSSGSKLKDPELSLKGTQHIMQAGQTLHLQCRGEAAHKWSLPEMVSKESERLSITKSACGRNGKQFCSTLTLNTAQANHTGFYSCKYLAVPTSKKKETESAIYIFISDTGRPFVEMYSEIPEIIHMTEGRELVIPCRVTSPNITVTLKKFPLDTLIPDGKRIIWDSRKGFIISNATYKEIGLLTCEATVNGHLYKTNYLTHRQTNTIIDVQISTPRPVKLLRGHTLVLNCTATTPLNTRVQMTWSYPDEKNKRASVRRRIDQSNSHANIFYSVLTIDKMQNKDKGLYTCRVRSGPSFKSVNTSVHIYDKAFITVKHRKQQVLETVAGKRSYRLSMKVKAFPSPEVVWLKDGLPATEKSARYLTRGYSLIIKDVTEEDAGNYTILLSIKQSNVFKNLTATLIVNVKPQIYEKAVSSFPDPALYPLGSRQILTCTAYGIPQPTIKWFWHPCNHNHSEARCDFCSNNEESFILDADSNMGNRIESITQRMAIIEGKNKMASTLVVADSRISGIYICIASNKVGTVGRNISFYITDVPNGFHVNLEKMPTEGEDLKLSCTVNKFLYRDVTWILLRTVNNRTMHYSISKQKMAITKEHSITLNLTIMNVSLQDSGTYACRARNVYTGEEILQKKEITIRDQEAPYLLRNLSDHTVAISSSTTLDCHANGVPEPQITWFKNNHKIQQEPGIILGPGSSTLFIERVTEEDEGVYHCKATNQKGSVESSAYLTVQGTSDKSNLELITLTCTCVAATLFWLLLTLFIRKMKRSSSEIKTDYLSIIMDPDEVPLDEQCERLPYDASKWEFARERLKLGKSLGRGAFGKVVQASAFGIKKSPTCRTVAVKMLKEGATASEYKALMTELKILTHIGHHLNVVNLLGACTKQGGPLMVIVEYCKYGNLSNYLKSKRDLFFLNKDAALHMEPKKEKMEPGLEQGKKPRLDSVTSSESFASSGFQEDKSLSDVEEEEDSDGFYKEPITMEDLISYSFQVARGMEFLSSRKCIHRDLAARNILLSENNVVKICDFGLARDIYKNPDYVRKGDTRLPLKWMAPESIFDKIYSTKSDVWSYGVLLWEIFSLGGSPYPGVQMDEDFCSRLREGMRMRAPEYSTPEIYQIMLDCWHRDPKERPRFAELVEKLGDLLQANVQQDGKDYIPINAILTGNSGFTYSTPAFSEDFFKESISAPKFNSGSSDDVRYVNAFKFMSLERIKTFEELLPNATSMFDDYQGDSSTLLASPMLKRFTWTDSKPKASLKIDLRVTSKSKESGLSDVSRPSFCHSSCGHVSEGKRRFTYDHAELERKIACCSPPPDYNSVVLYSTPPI
Proto-oncogene tyrosine-protein kinase receptor Ret (Homo sapiens), sequence (P07949 whole entry, the tested form may be a part): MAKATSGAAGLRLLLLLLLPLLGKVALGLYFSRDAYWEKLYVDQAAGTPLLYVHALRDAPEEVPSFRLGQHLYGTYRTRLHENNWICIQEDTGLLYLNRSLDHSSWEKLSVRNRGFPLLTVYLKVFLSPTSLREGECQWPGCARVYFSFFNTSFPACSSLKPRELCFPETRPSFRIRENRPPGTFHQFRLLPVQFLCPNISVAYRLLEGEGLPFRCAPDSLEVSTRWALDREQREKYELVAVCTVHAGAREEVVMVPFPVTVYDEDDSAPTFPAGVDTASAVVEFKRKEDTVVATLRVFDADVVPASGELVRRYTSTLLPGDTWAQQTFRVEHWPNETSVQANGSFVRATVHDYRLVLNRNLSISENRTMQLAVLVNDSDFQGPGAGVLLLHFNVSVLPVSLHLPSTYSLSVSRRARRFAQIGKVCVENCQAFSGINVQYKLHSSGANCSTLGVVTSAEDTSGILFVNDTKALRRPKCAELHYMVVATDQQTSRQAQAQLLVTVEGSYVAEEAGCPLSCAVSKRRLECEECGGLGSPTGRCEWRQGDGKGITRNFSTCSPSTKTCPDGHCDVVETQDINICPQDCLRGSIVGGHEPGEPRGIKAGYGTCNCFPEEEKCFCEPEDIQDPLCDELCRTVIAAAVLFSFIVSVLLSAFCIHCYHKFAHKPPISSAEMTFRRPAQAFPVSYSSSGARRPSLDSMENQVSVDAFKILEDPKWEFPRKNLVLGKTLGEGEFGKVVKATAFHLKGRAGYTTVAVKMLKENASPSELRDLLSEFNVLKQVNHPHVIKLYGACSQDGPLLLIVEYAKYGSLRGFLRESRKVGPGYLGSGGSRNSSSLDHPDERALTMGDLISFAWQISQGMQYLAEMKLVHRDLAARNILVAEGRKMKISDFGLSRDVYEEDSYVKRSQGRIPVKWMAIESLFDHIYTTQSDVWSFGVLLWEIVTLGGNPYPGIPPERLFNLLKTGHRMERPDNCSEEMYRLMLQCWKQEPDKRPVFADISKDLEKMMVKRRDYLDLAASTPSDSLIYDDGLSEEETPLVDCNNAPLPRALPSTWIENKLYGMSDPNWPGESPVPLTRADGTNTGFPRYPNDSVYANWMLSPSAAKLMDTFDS
Death-associated protein kinase 3 (Homo sapiens), sequence (O43293 whole entry, looked up, the tested form may be a part): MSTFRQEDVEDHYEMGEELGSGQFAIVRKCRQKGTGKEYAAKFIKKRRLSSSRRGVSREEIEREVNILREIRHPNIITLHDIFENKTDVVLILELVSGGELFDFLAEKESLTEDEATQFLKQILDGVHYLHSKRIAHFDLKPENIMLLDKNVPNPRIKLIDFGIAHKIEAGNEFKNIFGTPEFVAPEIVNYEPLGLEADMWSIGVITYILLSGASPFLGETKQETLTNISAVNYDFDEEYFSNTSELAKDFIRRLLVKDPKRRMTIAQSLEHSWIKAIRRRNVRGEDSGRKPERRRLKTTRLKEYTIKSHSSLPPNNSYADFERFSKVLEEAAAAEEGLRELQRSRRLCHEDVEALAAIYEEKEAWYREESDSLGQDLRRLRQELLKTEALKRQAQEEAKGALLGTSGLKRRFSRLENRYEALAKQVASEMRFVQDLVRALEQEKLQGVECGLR

Work on `CNC(=O)Nc1ccc(-c2nc(N3CC4CCC(C3)O4)c3cnn(C4CCC5(CC4)OCCO5)c3n2)cc1` yielded an Activity [1] of 100%, an inhibition [2] of 0% and an Activity [3] of 100%. The inhibition [4] was 12%, the inhibition [5] was 2% and the inhibition [6] was 3%. For the same compound, the Activity [7] was “Active”, the inhibition [8] was 1% and the inhibition [9] was 2%. It also gave an inhibition [10] of 4%, an inhibition [11] of 3% and an inhibition [12] of -1%. For the same compound, the inhibition [13] was -4%, the Activity [14] was “Active” and the inhibition [15] was 1%. For the same compound, the Activity [16] was “Active”, the inhibition [17] was 2% and the inhibition [18] was 2%. For the same compound, the IC50 [19] was 25 nM, the Activity [20] was “Active” and the Activity [21] was “Active”. For the same compound, the inhibition [22] was 11%, the inhibition [23] was 8% and the inhibition [24] was “Active”. The Activity [25] was “Active” and the inhibition [26] was 3%.
